Data as given in patent US10995091B2 (Proximagen, LLC, priority 2010, dated 2021).

Target: T1, Human CXCR4 transfected HEK293 cells (Homo sapiens, UniProt P61073)
T1 construct: expressed in transfected cells; host or cells: HEK293
Test: CXCR4 functional calcium assay (calcium flux FLIPR, antagonism of SDF1 response)
Type: cell-based
Conditions: CXCR4 functional activity, antagonism of SDF1 (EC50 concentration), read-out: CXCR4 fKi
Summary of the method: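 HEK293 cells stably transfected with human CXCR4 were loaded with 2 μM Fluo-4 AM in HBSS containing 2.5 mM probenecid, 0.1% BSA and 10 mM HEPES at pH 7.4 and 37° C. Compound was added first, then SDF1 at its EC50 concentration, and intracellular calcium fluorescence was followed on a FLIPR. Antagonist dose-response curves were fitted.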

T1 sequence (P61073 whole entry): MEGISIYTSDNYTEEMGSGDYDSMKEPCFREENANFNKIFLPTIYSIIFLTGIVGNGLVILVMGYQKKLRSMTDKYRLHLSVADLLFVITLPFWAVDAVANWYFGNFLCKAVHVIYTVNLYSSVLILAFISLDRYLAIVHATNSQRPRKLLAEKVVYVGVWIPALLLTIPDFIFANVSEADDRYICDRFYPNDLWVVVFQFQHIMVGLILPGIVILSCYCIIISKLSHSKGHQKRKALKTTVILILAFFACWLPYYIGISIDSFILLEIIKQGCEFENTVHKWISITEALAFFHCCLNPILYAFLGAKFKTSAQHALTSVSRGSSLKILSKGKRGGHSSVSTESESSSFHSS

SMILES | Ki [nM]
O=C(NCC1CC1)c1ccnc(N2CCCN(C3CCN(Cc4ccccc4Cl)CC3)CC2)c1 [Example 269, 2-(4-{1-[(2-chlorophenyl)methyl]piperidin-4-yl}-1,4-diazepan-1-yl)-N-(cyclopropylmethyl)pyridine-4-carboxamide] | 100 to 500
CC(C)N1CCC(N2CCCN(c3cccc(-c4ncc(C(C)(C)C)[nH]4)n3)CC2)CC1 [Example 113, 1-[6-(4-tert-Butyl-1H-imidazol-2-yl)pyridine-2-yl]-4-[1-(propan-2-yl)piperidin-4-yl]-1,4-diazepane] | 100 to 500
CC(C)N1CCC(N2CCCN(c3cccc(-c4nc5ccccc5o4)n3)CC2)CC1 [Example 152, 2-(6-{4-[1-(Propan-2-yl)piperidin-4-yl]-1,4-diazepan-1-yl}pyridine-2-yl)-1,3-benzoxazole] | 100 to 500
CCc1cn(C)c(-c2cccc(N3CCCN(C4CCN(C(C)C)CC4)CC3)n2)n1 [Example 124, 1-[6-(4-Ethyl-1-methyl-1H-imidazol-2-yl)pyridine-2-yl]-4-[1-(propan-2-yl)piperidin-4-yl]-1,4-diazepane] | 20 to 100
Cc1cc(NC(=O)c2cccc(N3CCCN(C4CCN(Cc5ccccc5Cl)CC4)CC3)n2)cc(C)n1 [Example 85, 6-(4-{1-[(2-Chlorophenyl)methyl]piperidin-4-yl}-1,4-diazepan-1-yl)-N-(2,6-dimethylpyridin-4-yl)pyridine-2-carboxamide] | 20 to 100
CC(C)N1CCC(N2CCCN(c3cccc(C(=O)Nc4ccc(Cl)cc4)n3)CC2)CC1 [Example 25, N-(4-Chlorophenyl)-6-{4-[1-(propan-2-yl)piperidin-4-yl]-1,4-diazepan-1-yl}pyridine-2-carboxamide] | 100 to 500
Cc1nc(-c2cccc(N3CC[C@@H](NC[C@H]4CCN(C5CCCC5)C4)C3)n2)[nH]c1C1CC1 [Example 225, (3R)—N-{[(3R)-1-Cyclopentylpyrrolidin-3-yl]methyl}-1-[6-(4-cyclopropyl-5-methyl-1H-imidazol-2-yl)pyridin-2-yl]pyrrolidin-3-amine] | < 20
CC(C)N1CCC(N2CCCN(c3cccc(C(=O)NCC4CCOCC4)n3)CC2)CC1 [Example 1, N-(Oxan-4-ylmethyl)-6-{4-[1-(propan-2-yl)piperidin-4-yl]-1,4-diazepan-1-yl}pyridine-2-carboxamide] | 100 to 500
[2H]C1([2H])CCN(C2CCN(C(C)C)CC2F)CCN1c1cccc(C(=O)Nc2ccncc2)n1 (stereo not shown) [Example 211, 6-{4-[3-Fluoro-1-(propan-2-yl)piperidin-4-yl]-7,7-dihydrogenio-1,4-diazepan-1-yl}-N-(pyridin-4-yl)pyridine-2-carboxamide] | 20 to 100
COc1ccc2cc(-c3cccc(N4CCCN(C5CCN(C(C)C)CC5)CC4)n3)[nH]c2c1 [Example 104, 6-Methoxy-2-(6-{4-[1-(propan-2-yl)piperidin-4-yl]-1,4-diazepan-1-yl}pyridine-2-yl)-1H-indole] | 500 to 1000
Cc1nc(-c2cccc(N3CC[C@@H](NC[C@@H]4CCN(C5CCCC5)C4)C3)n2)[nH]c1C1CC1 [Example 224, (3R)—N-{[(3S)-1-Cyclopentylpyrrolidin-3-yl]methyl}-1-[6-(4-cyclopropyl-5-methyl-1H-imidazol-2-yl)pyridin-2-yl]pyrrolidin-3-amine] | < 20
CCc1nc(-c2cccc(N3CCCN(C4CCN(C(C)C)CC4)CC3)n2)[nH]c1CC [Example 120, 1-[6-(4,5-Diethyl-1H-imidazol-2-yl)pyridine-2-yl]-4-[1-(propan-2-yl)piperidin-4-yl]-1,4-diazepane] | 20 to 100
[2H]C1([2H])CCN(c2cccc(C(=O)Nc3ccncc3)n2)CCN1C1CCN(C(C)C)CC1F (stereo not shown) [Example 187, 6-{4-[3-Fluoro-1-(propan-2-yl)piperidin-4-yl]-5,5-dihydrogenio-1,4-diazepan-1-yl}-N-(pyridin-4-yl)pyridine-2-carboxamide] | 20 to 100
CC(C)N1CCC(N2CCCN(c3cccc(C(=O)NCCN(C)C)n3)CC2)CC1 [Example 16, N-[2-(Dimethylamino)ethyl]-6-{4-[1-(propan-2-yl)piperidin-4-yl]-1,4-diazepan-1-yl}pyridine-2-carboxamide] | 100 to 500
CCCc1nc(-c2cccc(N3CCCN(C4CCN(C(C)C)CC4)CC3)n2)no1 [Example 156, 1-[1-(Propan-2-yl)piperidin-4-yl]-4-[6-(5-propyl-1,2,4-oxadiazol-3-yl)pyridine-2-yl]-1,4-diazepane] | 20 to 100
[2H]C1([2H])CCN(C2CCN(C3CCCC3)CC2)CCN1c1cccc(C(=O)Nc2ccncc2)n1 [Example 179, 6-[4-(1-Cyclopentylpiperidin-4-yl)-7,7-dihydrogenio-1,4-diazepan-1-yl]-N-(pyridine-4-yl)pyridine-2-carboxamide] | < 20
Cc1nc(-c2cccc(NCCNC3CCCN(C4CCCC4)C3)n2)[nH]c1C1CC1 (stereo not shown) [Example 231, N-{2-[(1-Cyclopentylpiperidin-3-yl)amino]ethyl}-6-(5-cyclopropyl-4-methyl-1H-imidazol-2-yl)pyridin-2-amine] | 100 to 500
O=C(NCC1CCOCC1)c1cccc(N2CCCN(C3CCN(Cc4ccccc4Cl)CC3)CC2)n1 [Example 47, 6-(4-{1-[(2-Chlorophenyl)methyl]piperidin-4-yl}-1,4-diazepan-1-yl)-N-(oxan-4-ylmethyl)pyridine-2-carboxamide] | < 20
CCCCc1cnc(-c2cccc(N3CCCN(C4CCN(C(C)C)CC4)CC3)n2)o1 [Example 171, 1-[6-(5-Butyl-1,3-oxazol-2-yl)pyridin-2-yl]-4-[1-(propan-2-yl)piperidin-4-yl]-1,4-diazepane] | 500 to 1000
OCc1cccc(N2CCCN(C3CCN(Cc4ccccc4Cl)CC3)CC2)n1 [Example 260, [6-(4-{1-[(2-Chlorophenyl)methyl]piperidin-4-yl}-1,4-diazepan-1-yl)pyridin-2-yl]methanol] | 500 to 1000

Further lines, results first:

Ki [nM] | SMILES
20 to 100 | O=C(NCc1ncco1)c1cccc(N2CCCN(C3CCN(Cc4ccccc4Cl)CC3)CC2)n1 [Example 57, 6-(4-{1-[(2-Chlorophenyl)methyl]piperidin-4-yl}-1,4-diazepan-1-yl)-N-(1,3-oxazol-2-ylmethyl)pyridine-2-carboxamide]
100 to 500 | C[C@H](c1ccccc1)N1CCC(N2CCCN(c3cccc(C(=O)NCC4CC4)n3)CC2)CC1 [Example 74, N-(Cyclopropylmethyl)-6-(4-{1-[(1R)-1-phenylethyl]piperidin-4-yl}-1,4-diazepan-1-yl)pyridine-2-carboxamide]
< 20 | CCC(C)N1CCC(N2CCCN(c3cccc(C(=O)NCC4CC4)n3)CC2)CC1 (stereo not shown) [Example 65, 6-{4-[1-(Butan-2-yl)piperidin-4-yl]-1,4-diazepan-1-yl}-N-(cyclopropylmethyl)pyridine-2-carboxamide]
20 to 100 | CCCCNC(=O)c1cccc(N2CCCN(C3CCN(C(C)C)CC3)CC2)n1 [Example 7, N-Butyl-6-{4-[1-(propan-2-yl)piperidin-4-yl]-1,4-diazepan-1-yl}pyridine-2-carboxamide]
20 to 100 | COCCNC(=O)c1cccc(N2CCCN(C3CCN(C(C)C)CC3)CC2)n1 [Example 14, N-(2-Methoxyethyl)-6-{4-[1-(propan-2-yl)piperidin-4-yl]-1,4-diazepan-1-yl}pyridine-2-carboxamide]
100 to 500 | CC(C)N1CCC(N2CCCN(c3cccc(C(=O)N(C)Cc4cccnc4)n3)CC2)CC1 [Example 35, N-Methyl-6-{4-[1-(Propan-2-yl)piperidin-4-yl]-1,4-diazepan-1-yl}-N-(pyridin-3-ylmethyl)pyridine-2-carboxamide]
20 to 100 | CC(C)N1CCC(N2CCCN(c3cccc(C(=O)NCCc4ccccn4)n3)CC2)CC1 [Example 46, 6-{4-[1-(Propan-2-yl)piperidin-4-yl]-1,4-diazepan-1-yl}-N-[2-(pyridin-2-yl)ethyl]pyridine-2-carboxamide]
100 to 500 | C[C@H](c1ccc(F)cc1)N1CCC(N2CCCN(c3cccc(C(=O)NCC4CC4)n3)CC2)CC1 [Example 75, N-(Cyclopropylmethyl)-6-(4-{1-[(1R)-1-(4-fluorophenyl)ethyl]piperidin-4-yl}-1,4-diazepan-1-yl)pyridine-2-carboxamide]
20 to 100 | CC(C)N1CCC(N2CCCN(c3cccc(C(=O)Nc4ccccc4O)n3)CC2)CC1 [Example 24, N-(2-Hydroxyphenyl)-6-{4-[1-(propan-2-yl)piperidin-4-yl]-1,4-diazepan-1-yl}pyridine-2-carboxamide]
< 20 | CC(C)N1CCC(N2CCCN(c3cccc(C(=O)NCC4CC4)n3)CC2)CC1 [Example 63, N-(Cyclopropylmethyl)-6-{4-[1-(propan-2-yl)piperidin-4-yl]-1,4-diazepan-1-yl}pyridine-2-carboxamide]
100 to 500 | C[C@H](N1CCC(N2CCCN(c3cccc(C(=O)NCc4nccs4)n3)CC2)CC1)C(F)(F)F [Example 94, N-(1,3-Thiazol-2-ylmethyl)-6-(4-{1-[(2S)-1,1,1-trifluoropropan-2-yl]piperidin-4-yl}-1,4-diazepan-1-yl)pyridine-2-carboxamide]
20 to 100 | CC(C)(C)C1CCC(N2CCCN(c3cccc(C(=O)NCc4cccnc4)n3)CC2)CC1 (stereo not shown) [Example 256, 6-[4-(4-tert-Butylcyclohexyl)-1,4-diazepan-1-yl]-N-(pyridin-3-ylmethyl)pyridine-2-carboxamide]
< 20 | O=C(Nc1ccncc1)c1cccc(N2CCCN(C3CCN(C4CCCC4)CC3)CC2)n1 [Example 83, 6-[4-(1-Cyclopentylpiperidin-4-yl)-1,4-diazepan-1-yl]-N-(pyridine-4-yl)pyridine-2-carboxamide]
20 to 100 | CC(C)N1CCC(N2CCCN(c3cccc(C(=O)Cc4ccccc4)n3)CC2)CC1 [Example 220, 2-Phenyl-1-(6-{4-[1-(propan-2-yl)piperidin-4-yl]-1,4-diazepan-1-yl}pyridin-2-yl)ethan-1-one]
